Measured values published in patent US11548918B2, “Sodium channel protein Nav1.4-targeting polypeptide and use thereof” (priority 2021, dated 2023).
Where no end group is shown, it is not given here.

System: skin wrinkles
Experiment: Clinical trial of wrinkle reduction, wrinkle volume measured with PRIMOS CR
Type: in vivo, human
Conditions: lotion with 0.0003 wt % NaV-B, 0.1 g at corners of eyes, female volunteers
Procedure: The capacity of NaV-B in reducing skin wrinkles was evaluated by clinical trials, wherein a total of 30 female volunteers ranging from 35 to 55 years old were participating in the trials. In the trials, 0.1 g of lotion was evenly applied to the corners of the volunteers' eyes. The wrinkle volume of each volunteer was measured with a wrinkle analyzer PRIMOS CR at various moments: before application, 15 minutes after application, 1 hour after application, 2 hours after application, and 4 hours after application.
The lotion was prepared by adding NaV-B, glycerin, 1,3-butanediol, sodium hyaluronate, and methylparaben into deionized water according to the following proportions, and stirring until all the ingredients were dissolved.
Results: The reduced wrinkle volumes of each volunteer were obtained by subtracting the volume measured before application from the volumes measured 15 minutes after application, 1 hour after application, 2 hours after application, and 4 hours after application. The percentages of reduced wrinkle volume of each volunteer were obtained through dividing the reduced wrinkle volumes by the volume measured before application.

With “Synthetic Nav1.4-targeting polypeptide, amino acid sequence GHCCGDEYRKWCGKRVCRNKARCC (disulfide (positions not given here); not fully specified (bridges)) [NaV-B]” as the substance, how does the “percentage of reduced wrinkle volume (average of all volunteers)” value (15 minutes after application) read?
Its value is “more than 9%”.

What about the “percentage of reduced wrinkle volume (average of all volunteers)” value (4 hours after application) of the same substance?
Its value is “more than 15%”.
